Experimental data reported in patent US11026972B2, “Methods for generating macrophages with enhanced cancer phagocytosis” (Georgia State University Research Foundation, Inc., priority 2016, dated 2021).

Key:
Assay type in all cases: cell-based, mouse
SIRPα = SIRPα immunoprecipitation and WB detection of SIRPα ITIM phosphorylation and SHP-1 association; settings: PMA treatment
Protocol: FIGS. 4A-4E include data related to our experiments on macrophage phagocytic plasticity. FIG. 4A is a panel of illustrative line graphs showing that IL-10 inhibits macrophage phagocytosis toward “self.” PEMs were treated with LPS and activating cytokines along with various concentrations of IL-10 before testing their ability to phagocytose RBCs. FIG. 4B illustrates the phagocytic plasticity of WT red pulp macrophages. […] Treatments of cultured macrophages with LPS and IL-17 re-elicited their phagocytosis toward RBCs. […] Error bars are ±SEM. ***P<0.001 vs. freshly isolated splenic macrophages. FIG. 4D includes microscopic images of RBC phagocytosis by LPS- and IL-17-treated splenic macrophages. […] WT PEMs treated with LPS or IL-17 were further treated with Cd47^+ RBCs or Cd47-AP (10 min, 37° C.) followed by cell lysis, SIRPα immunoprecipitation, and WB detection of SIRPα phosphorylation (SIRPα^pY) and SHP-1 association. Data presented in each panel represent at least three independent experiments with n≥4, if applicable.
FIGS. 5A-5H include data related to our experiments on the role of Syk in phagocytic activation. […] PEMs were treated with LPS and cytokines in the presence of various inhibitors. After washing, inhibitor-free macrophages were tested for phagocytosis toward RBCs. […] PEMs treated with LPS and activating cytokines, or together with IL-10, were tested for total Syk and phosphorylated Syk (Syk^pY, specific at Y519/520). FIG. 5D describes PMA-induced macrophages phagocytosis toward RBCs. WT and SIRPα^−/− PEMs were treated with PMA (37° C., 30 min) before testing phagocytosis toward RBCs. FIG. 5E is a schematic depiction of PKC-Syk-mediated macrophage phagocytic activation toward self. […] Left: Inhibition of Syk by piceatannol and R406 prevented PMA-induced phagocytic activation. […] Error bars are ±SEM. ***P<0.001 vs. the respective controls. […] LPS-treated WT PEMs were further briefly treated with pervanadate before testing for phagocytosis toward RBCs. Error bars are ±SEM. ***P<0.001 vs. the respective controls. […]

[1] = tested on: cell surface LRP1 and CRT on PEMs; assay: Macrophage cell surface CRT and LRP1 by FACS; settings: after PMA treatment
Protocol: FIGS. 6A-6D include data related to our investigation of possible phagocytic receptors on macrophages for phagocytosing healthy self-cells. […] PEM (unstimulated) phagocytosis toward apoptotic B16 cells was tested in the presence of same antibodies and RAP as in A. Error bars are ±SEM. ***P<0.001 vs. phagocytosis in the presence of control IgG. […] PEMs, with or without (ctl.) treatment with LPS, IL-17, IL-6, or PMA, were labeled for cell surface LRP1 and CRT followed by FACS. Increased and decreased expressions were marked by arrows. […] Activated PEM phagocytosis toward RBCs was tested in the presence of antibodies against SR-A, Fc receptor Cd16/32 (10 μg/mL of each), inhibitors against SR-B (BLT1, 5 μM), dectin (laminarin, 100 μg/mL), complement (heparin, 40 U/mL), and antibody against Cd11b (10 μg/mL). Error bars are ±SEM. ***P<0.001 vs. the respective control without inhibition. Data presented in each panel represent at least three independent experiments with n≥4, if applicable.

PEMs [2] = assay: Cell signaling inhibitors on LPS/cytokine- or PMA-induced PEM phagocytic activation toward RBCs; settings: PMA treatment
Protocol: FIGS. 5A-5H include data related to our experiments on the role of Syk in phagocytic activation. […] PEMs were treated with LPS and cytokines in the presence of various inhibitors. After washing, inhibitor-free macrophages were tested for phagocytosis toward RBCs. […] PEMs treated with LPS and activating cytokines, or together with IL-10, were tested for total Syk and phosphorylated Syk (Syk^pY, specific at Y519/520). FIG. 5D describes PMA-induced macrophages phagocytosis toward RBCs. WT and SIRPα^−/− PEMs were treated with PMA (37° C., 30 min) before testing phagocytosis toward RBCs. FIG. 5E is a schematic depiction of PKC-Syk-mediated macrophage phagocytic activation toward self. […] Left: Inhibition of Syk by piceatannol and R406 prevented PMA-induced phagocytic activation. […] Error bars are ±SEM. ***P<0.001 vs. the respective controls. […] LPS-treated WT PEMs were further briefly treated with pervanadate before testing for phagocytosis toward RBCs. Error bars are ±SEM. ***P<0.001 vs. the respective controls. […] Data presented in each panel represent at least three independent experiments with n≥4, if applicable.
(§1) Ex vivo macrophage phagocytosis: Mouse spleens were harvested and minced in cold HBSS followed by passing through nylon meshes. The spleen cells in suspensions were collected by centrifugation followed by washing. After lysis of RBC, splenocytes were plated in cell culture dishes in DMEM with 10% FBS and cultured for 2 h followed by removal of non-adherent cells. The adherent cells, ˜70% being macrophages as determined by anti-F4/80 staining, were tested for phagocytosis. For phagocytosis of RBC or other tissue cells, targeted cells were labeled with CFSE prior to addition into the macrophage-containing wells. Macrophages and target cells, at a ratio of 1:5-10 for RBC or 1:1-2 for other cells, were co-incubated for 30 min at 37° C. followed by gently washing. Macrophage phagocytosis of target cells was then analyzed by fluorescence microscopy and/or by FACS. […] Alternatively, the freshly isolated splenocytes in suspension were incubated with CFSE-labeled RBC and other phagocytic targets for 30 min at 37° C. Macrophage phagocytosis was then determined by FACS after labeling macrophages with anti-F4/80. To test phagocytosis of apoptotic cells, B16 cells were irradiated by UV for 150 seconds at 50 J/m^2 strength. Apoptosis was analyzed at 2, 4, 6, 8 and 18 h post UV irradiation by labeling of the cells with anti-phosphatidylserine (PS) antibody (data not shown) or FITC-conjugated annexin V (data not shown). Cells that were confirmed to be apoptotic were trypsinized, labeled with CFSE, and then co-incubated with macrophages for 30 min at 37° C. After gentle washing, phagocytosis was analyzed by fluorescence microscopy and/or FACS. To test phagocytosis of bacteria and the fungal product zymosan, AlexaFluor-conjugated E.coli strain […] (2 μl suspension, ˜2 μg) or zymosan bioparticles (1 μl suspension, ˜2 μg) (both from Invitrogen) were incubated with macrophages for 30 min followed by washing and analyses. Similar procedures were performed to test phagocytosis of macrophages from various sources. To obtain peritoneal macrophages, peritonea of mice were lavaged by sterile PBS followed by centrifugation to collect cells. Cells suspended in DMEM with 10% FBS were then plated in cell culture dishes and incubated for 2 h at 37° C. followed by removal of non-adherent cells. To produce bone marrow-derived macrophages, freshly isolated bone marrow cells were culture in macrophage colony-stimulating factor (MCSF, ˜10 ng/ml)-containing MEM with 10% FBS for five-six days and macrophage differentiation was confirmed by anti-F4/80 staining.

[3] = tested on: splenic macrophages, PEMs and BMDMs; assay: Ex vivo macrophage phagocytosis toward RBCs and other self-cells after activation
Outline: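 Mouse splenic or peritoneal macrophages (2 h adherent selection) or BMDMs (M-CSF ~10 ng/ml, 5-6 days) were co-incubated 30 min at 37 °C with CFSE-labelled RBCs (1:5-10) or other cells (1:1-2). Uptake was scored by fluorescence microscopy and/or FACS with anti-F4/80 or anti-CD11b macrophage labelling.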

PEMs [4] = assay: PEM (unstimulated) phagocytosis toward apoptotic B16 cells; settings: same antibodies and RAP as for RBCs
Protocol: (§2) FIGS. 6A-6D include data related to our investigation of possible phagocytic receptors on macrophages for phagocytosing healthy self-cells. […] PEMs, with or without (ctl.) treatment with LPS, IL-17, IL-6, or PMA, were labeled for cell surface LRP1 and CRT followed by FACS. […] Activated PEM phagocytosis toward RBCs was tested in the presence of antibodies against SR-A, Fc receptor Cd16/32 (10 μg/mL of each), inhibitors against SR-B (BLT1, 5 μM), dectin (laminarin, 100 μg/mL), complement (heparin, 40 U/mL), and antibody against Cd11b (10 μg/mL). […] Data presented in each panel represent at least three independent experiments with n≥4, if applicable.
Ex vivo macrophage phagocytosis: Mouse spleens were harvested and minced in cold HBSS followed by passing through nylon meshes. […] The adherent cells, ˜70% being macrophages as determined by anti-F4/80 staining, were tested for phagocytosis. […] Macrophage phagocytosis of target cells was then analyzed by fluorescence microscopy and/or by FACS. […] Macrophage phagocytosis was then determined by FACS after labeling macrophages with anti-F4/80. […] Apoptosis was analyzed at 2, 4, 6, 8 and 18 h post UV irradiation by labeling of the cells with anti-phosphatidylserine (PS) antibody (data not shown) or FITC-conjugated annexin V (data not shown). […] After gentle washing, phagocytosis was analyzed by fluorescence microscopy and/or FACS. […]

PEMs [5] = assay: Activated PEM phagocytosis toward RBCs in the presence of antibodies/inhibitors against phagocytic receptors; settings: anti-CRT 10 μg/mL each; anti-LRP1 20 μg/mL; RAP 20 μg/mL
Protocol: as §2
as §1, with “To obtain peritoneal macrophages, peritonea of mice were lavaged by sterile PBS followed by centrifugation to collect cells. Cells suspended in DMEM with 10% FBS were then plated in cell culture dishes and incubated for 2 h at 37° C. followed by removal of non-adherent cells. To produce bone marrow-derived macrophages, freshly isolated bone marrow cells were culture in macrophage colony-stimulating factor (MCSF, ˜10 ng/ml)-containing MEM with 10% FBS for five-six days and macrophage differentiation was confirmed by anti-F4/80 staining.” left out

Compound: CCCCCCCCCCCCCC(=O)O[C@@H]1[C@@H](C)[C@@]2(O)[C@@H](C=C(CO)C[C@]3(O)C(=O)C(C)=C[C@@H]23)[C@@H]2C(C)(C)[C@]12OC(C)=O [PMA, phorbol 12-myristate 13-acetate]
- SIRPα expression, SIRPα ITIM phosphorylation and SHP-1 association (SIRPα): neither reduced SIRPα expression nor affected SIRPα ITIM phosphorylation and SHP-1 association
- reduction of CRT and LRP1 expression on PEMs [1]: ~50%
- rescue of Syk inhibition-repressed PEM phagocytic activation by LPS (PEMs [2]): failed to rescue
- time to elicitation of phagocytosis [3]: < 30 min
- phagocytic target discrimination ([3]; PMA-treated WT PEMs): aggressively phagocytosed both CD47^− and CD47^+ RBCs
- PEM phagocytosis toward RBCs ([3]; low nanomolar concentrations, 37° C., 30 min): instantly initiated PEM to phagocytose RBCs

Compound: RAP: LRP1 receptor-associated protein, which inhibits CRT-LRP1 binding
- phagocytosis toward apoptotic cells (PEMs [4]): significantly inhibited
- LPS/cytokine-induced PEM phagocytosis toward RBCs (PEMs [5]): failed to inhibit
